We go through 20 compounds from PubChem BioAssay (NCI).

Some test systems named below: NCI-H226 lung; A498 renal; OVCAR-5 ovarian; SF-295 CNS; SK-MEL-5 melanoma; HT29 colon; ACHN renal; HS 578T breast; UACC-257 melanoma; CAKI-1 renal.
Holding throughout (test): NCI tumour cell line growth inhibition, 48 h

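Briefly, cells in 96-well plates were exposed to five compound concentrations for 48 h, and endpoints were estimated by linear interpolation. TGI: concentration producing complete growth inhibition.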 Some results are limits rather than exact numbers.

With `N#CC(c1ccc(O)cc1)N1CCN(C(C#N)c2ccc(O)cc2)CC1` (stereo not given), the TGI is above 77.6 µM with NCI-H226 lung; above 100 µM in the assay with A498 renal; above 100 µM in the assay with OVCAR-5 ovarian; above 100 µM with SF-295 CNS; above 100 µM in the assay with SK-MEL-5 melanoma; above 100 µM in the assay with HT29 colon. Moreover, the TGI with ACHN renal, in the assay on HS 578T breast, in the assay on UACC-257 melanoma and with CAKI-1 renal was above 100 µM each time.
For `NCCC1(N)CCNCC1`, the TGI with NCI-H226 lung, in the assay with A498 renal, with OVCAR-5 ovarian, in the assay on SF-295 CNS, in the assay on SK-MEL-5 melanoma and in the assay on HT29 colon was above 100 µM each time. In addition, the TGI in the assay with ACHN renal, in the assay on HS 578T breast, with UACC-257 melanoma and in the assay with CAKI-1 renal was above 100 µM in each case.
Regarding `COC(=O)C(=O)C(C(=O)C(=O)Nc1ccccc1C(=O)OC)c1nc2ccc(C(=O)c3ccccc3)cc2[nH]c1=O` (stereo not given), the TGI in the assay on NCI-H226 lung, with A498 renal, in the assay with OVCAR-5 ovarian, in the assay with SF-295 CNS, in the assay with SK-MEL-5 melanoma and with HT29 colon was above 100 µM throughout. The TGI with ACHN renal, in the assay on HS 578T breast, in the assay on UACC-257 melanoma and in the assay with CAKI-1 renal was above 100 µM in each case.
Take `N/C(CC/C(N)=N\O)=N\O`: the TGI in the assay with NCI-H226 lung, with A498 renal, in the assay with OVCAR-5 ovarian, with SF-295 CNS, in the assay on SK-MEL-5 melanoma and in the assay with HT29 colon was above 100 µM each time. The TGI with ACHN renal, in the assay with HS 578T breast, in the assay on UACC-257 melanoma and in the assay on CAKI-1 renal was above 100 µM throughout.
Regarding `N#Cc1c(-c2ccco2)c2c(n(C3OC(CO)C(O)C(O)C3O)c1=S)CCCC2` (stereo not given), the TGI in the assay on NCI-H226 lung, in the assay on A498 renal, in the assay with OVCAR-5 ovarian, with SF-295 CNS, in the assay on SK-MEL-5 melanoma and with HT29 colon was above 100 µM each time. In addition, the TGI in the assay with ACHN renal, in the assay with HS 578T breast, with UACC-257 melanoma and in the assay with CAKI-1 renal was above 100 µM in each case.
In the case of `O=c1c2cc([N+](=O)[O-])ccc2n2n1Cc1ccccc1CC2`, the TGI with NCI-H226 lung, in the assay with A498 renal, in the assay on OVCAR-5 ovarian, in the assay on SF-295 CNS, in the assay with SK-MEL-5 melanoma and in the assay on HT29 colon was above 100 µM throughout. Further, the TGI in the assay on ACHN renal, with HS 578T breast, in the assay with UACC-257 melanoma and with CAKI-1 renal was above 100 µM each time.
For `Oc1c(OCc2nnc(CCCCCCCCc3nnc(COc4ccc5ccccc5c4O)n3Nc3ccccc3)n2Nc2ccccc2)ccc2ccccc12`, the TGI in the assay with NCI-H226 lung came to 24.1 µM; in the assay with A498 renal it was 34.3 µM; in the assay on OVCAR-5 ovarian, 28.5 µM; in the assay with SF-295 CNS it was 13.9 µM; in the assay on SK-MEL-5 melanoma, 3.27 µM; in the assay with HT29 colon, 26.2 µM. For the same compound, the TGI came to 68.7 µM with ACHN renal, 22.2 µM in the assay with HS 578T breast, 25.7 µM in the assay with UACC-257 melanoma and 13.8 µM with CAKI-1 renal.
For `COc1ccc(NC(=S)NN=C(C)c2cccc(C(C)=NNC(=S)Nc3ccc(OC)cc3)n2)cc1`, the TGI in the assay with NCI-H226 lung, in the assay on A498 renal, in the assay on OVCAR-5 ovarian, in the assay on SF-295 CNS, with SK-MEL-5 melanoma and in the assay on HT29 colon was above 100 µM in each case. Also, the TGI in the assay on ACHN renal, in the assay on HS 578T breast, with UACC-257 melanoma and in the assay with CAKI-1 renal was above 100 µM in each case.
With `O=S(=O)(O)c1ccc(NN(c2c(O)ccc3ccccc23)S(=O)(=O)O)cc1`, the TGI with NCI-H226 lung, with A498 renal, with OVCAR-5 ovarian, in the assay with SF-295 CNS, in the assay with SK-MEL-5 melanoma and in the assay with HT29 colon was above 100 µM each time. The TGI in the assay on ACHN renal, with HS 578T breast, with UACC-257 melanoma and with CAKI-1 renal was above 100 µM throughout.
Take `COC1/C=C\C=C(/C)C(=O)NC2=CC(=O)C(NCCCl)=C(CC(C)CC(OC)C(O)C(C)/C=C(/C)C1OC(N)=O)C2=O` (stereo not given): the TGI stood at 8.62 µM in the assay with NCI-H226 lung; 4.55 µM in the assay on A498 renal; 11.7 µM in the assay with OVCAR-5 ovarian; 8.39 µM in the assay with SF-295 CNS; 3.11 µM in the assay with SK-MEL-5 melanoma; 1.92 µM in the assay with HT29 colon. In addition, the TGI amounted to 10.2 µM with ACHN renal, 58.4 µM with HS 578T breast, 0.911 µM in the assay with UACC-257 melanoma and 8.67 µM in the assay with CAKI-1 renal.
On to `[N-]=N[N+]#I1OC(C(F)(F)F)(C(F)(F)F)c2ccccc21`, for which the TGI in the assay on NCI-H226 lung amounted to 54.1 µM; with A498 renal, 31.8 µM; in the assay with OVCAR-5 ovarian, 28.5 µM; in the assay with SF-295 CNS, 31.2 µM; with SK-MEL-5 melanoma, 4.36 µM; with HT29 colon it was 35.3 µM. In addition, the TGI is 29.1 µM with ACHN renal, 37.3 µM with HS 578T breast, 75.9 µM in the assay on UACC-257 melanoma and 20.9 µM with CAKI-1 renal.
Take `CCC1(O)C=CC(=O)C=C1`: the TGI with NCI-H226 lung is 75.3 µM; in the assay on A498 renal, 67.9 µM; in the assay with OVCAR-5 ovarian it was above 100 µM; with SF-295 CNS, above 100 µM; in the assay on SK-MEL-5 melanoma, above 100 µM; with HT29 colon, above 100 µM. The TGI in the assay with ACHN renal was 49 µM; in the assay on HS 578T breast, above 100 µM; in the assay with UACC-257 melanoma it was above 52.5 µM; in the assay on CAKI-1 renal, above 100 µM.
With `COc1ccc(C2CC(c3cc4c(C)c(C(=O)c5ccccc5)oc4cc3O)=Nc3ccccc3S2)cc1OC` (stereo not given), the TGI in the assay with NCI-H226 lung is above 100 µM; in the assay with A498 renal, above 87 µM; with OVCAR-5 ovarian, above 100 µM; with SF-295 CNS it was above 100 µM; in the assay with SK-MEL-5 melanoma, above 100 µM; in the assay on HT29 colon it was above 100 µM. The TGI in the assay with ACHN renal, in the assay with HS 578T breast, in the assay with UACC-257 melanoma and in the assay with CAKI-1 renal was above 100 µM each time.
With `COc1ccc(CN2C(=O)CCC/C=C\[C@H]2CI)cc1`, the TGI in the assay with NCI-H226 lung came out at 25.5 µM; in the assay on A498 renal it was 25 µM; in the assay with OVCAR-5 ovarian it was 24.5 µM; in the assay with SF-295 CNS, 26.3 µM; in the assay with SK-MEL-5 melanoma, 25.1 µM; with HT29 colon, 21.5 µM. Also, the TGI in the assay with ACHN renal is 27.3 µM; in the assay on HS 578T breast, 33.2 µM; in the assay with UACC-257 melanoma, 21.7 µM; in the assay with CAKI-1 renal, 21.9 µM.
On to `CCCCCCCCCCCCNC(=O)NCC(OCC)OCC`, for which the TGI with NCI-H226 lung, with A498 renal, in the assay on OVCAR-5 ovarian, in the assay with SF-295 CNS, in the assay with SK-MEL-5 melanoma and in the assay with HT29 colon was above 10 µM throughout. Besides, the TGI in the assay on ACHN renal, with HS 578T breast, in the assay with UACC-257 melanoma and in the assay on CAKI-1 renal was above 10 µM throughout.
For the compound `C/C(=N\Nc1nc2cc(C)ccc2s1)c1ccccn1`, the TGI was 9.11 µM in the assay on NCI-H226 lung; 10.6 µM with A498 renal; 19.9 µM with OVCAR-5 ovarian; above 40.9 µM in the assay on SF-295 CNS; 4.35 µM in the assay with SK-MEL-5 melanoma; 6.69 µM in the assay on HT29 colon. Besides, the TGI was 11 µM with ACHN renal, 39 µM with HS 578T breast, above 100 µM with UACC-257 melanoma and 9.18 µM in the assay on CAKI-1 renal.
With `COC(=O)C1Cc2c(C)cccc2C1=O` (stereo not given), the TGI with NCI-H226 lung, in the assay with A498 renal, in the assay with OVCAR-5 ovarian, with SF-295 CNS, in the assay on SK-MEL-5 melanoma and in the assay on HT29 colon was above 100 µM each time. The TGI with ACHN renal, in the assay with HS 578T breast, in the assay with UACC-257 melanoma and in the assay with CAKI-1 renal was above 100 µM in each case.
For the compound `O=C(CCSC(CC(=O)c1ccc(Cl)cc1)c1ccc(Cl)cc1)Nc1ccc(Cl)cc1` (stereo not given), the TGI turned out to be 41.5 µM in the assay on NCI-H226 lung; 25.1 µM with A498 renal; 31.6 µM with OVCAR-5 ovarian; 25.8 µM with SF-295 CNS; 29.4 µM with SK-MEL-5 melanoma; 24.6 µM with HT29 colon. Also, the TGI amounted to 27.5 µM in the assay on ACHN renal, 64.1 µM in the assay on HS 578T breast, 29.6 µM with UACC-257 melanoma and 57.2 µM in the assay with CAKI-1 renal.
For `O=C(Cc1ccc(Cl)c(Cl)c1)NCCCN1CCN(CCCN2CCCCC2)CC1`, the TGI in the assay with NCI-H226 lung was 42.4 µM; with A498 renal it was 31 µM; in the assay with OVCAR-5 ovarian it was 46.6 µM; in the assay with SF-295 CNS it was 37.7 µM; in the assay with SK-MEL-5 melanoma, 22.1 µM; in the assay on HT29 colon it was 29.9 µM. Further, the TGI was 60.2 µM with ACHN renal, above 100 µM in the assay on HS 578T breast, 19.6 µM in the assay on UACC-257 melanoma and 41.3 µM in the assay with CAKI-1 renal.
Turning to `CCOn1cc(C[C@@]2(O)C(=O)OC3[C@@H](O)CO[C@@]32O)c2ccccc21` (stereo not given in full), the TGI with NCI-H226 lung is above 100 µM; with A498 renal, 4.09 µM; in the assay with OVCAR-5 ovarian it was above 100 µM; with SF-295 CNS it was above 100 µM; with SK-MEL-5 melanoma it was above 100 µM; in the assay with HT29 colon, above 100 µM. Also, the TGI in the assay on ACHN renal, in the assay on HS 578T breast, in the assay on UACC-257 melanoma and in the assay on CAKI-1 renal was above 100 µM throughout.
